Data set [1] has as its system panel of melanoma and breast cancer cell lines. The data set is described as follows: Average growth inhibition in panel of melanoma and breast cancer cell lines. Format: cell-based. Particulars: Homo sapiens, read-out: Average IC50, average of results obtained in all six cell lines.
The target of data set [2] is T1, survivin (Homo sapiens, UniProt O15392). Put plainly: Western blot of IAPs and cleaved-PARP in A375 cells.
A further data set relates to OVCAR3 and OVCAR8 cells. The data set is described as follows: Average growth inhibition in ovarian cancer cell lines. Format: cell-based. The note with it: Homo sapiens, read-out: Average IC50.
For data set [3], the target named is T1, survivin. The data set is described as follows: Western blot of survivin in ovarian cancer cells. Particulars: OVCAR8, SKOV3 and OVCAR3 cells, 24 hr, 2 and 4 μM.
A further data set deals with A375 xenograft tumors. Put plainly: A375 subcutaneous melanoma xenograft model in NSG mice. Format: in vivo, mouse. The note with it: 20 mg/kg IP, 3 times/week, 15 days, end of experiment, vs vehicle.
Data set [4] is described as follows: Liver microsome stability assay, human. The note with it: human microsomes, 88 vs 51 min.
The next data set deals with MDA-MB-435/LCC6MDR1. The data set is described as follows: In vitro antiproliferative. The note with it: Homo sapiens, 72 h, read-out: IC50 MDA-MB-435/LCC6MDRI. Format: cell-based.
Another data set concerns MDA-MB-435. Put plainly: In vitro antiproliferative. Format: cell-based. Particulars: Homo sapiens, MDA-MB-435, 72 h, read-out: IC50 MDA-MB-435.

T1 sequence (O15392 whole entry): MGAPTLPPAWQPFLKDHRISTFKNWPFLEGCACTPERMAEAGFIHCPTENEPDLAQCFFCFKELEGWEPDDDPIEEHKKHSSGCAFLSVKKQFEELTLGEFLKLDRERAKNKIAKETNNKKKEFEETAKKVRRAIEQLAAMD

For `Oc1c(CN2CCCC2)cc(Cn2cnc(-c3ccccc3)c2)c2cccnc12` [Compound 4a, 5-((4-phenyl-1H-imidazol-1-yl)methyl)-7-(pyrrolidin-1-ylmethyl)quinolin-8-ol], in data set [1], the IC50 was found to be 4.2 µM.
For the compound `Oc1c(CN2CCCC2)cc(COC2Cc3ccccc3C2)c2cccnc12` [Compound 4c, 5-(((2,3-dihydro-1H-inden-2-yl)oxy)methyl)-7-(pyrrolidin-1-ylmethyl)quinolin-8-ol], the IC50 in data set [1] turned out to be 2.7 µM.
For `Oc1c(CN2CCCC2)cc(COC2CCc3ccccc3C2)c2cccnc12` (stereo not shown) [Compound 4d, 7-(pyrrolidin-1-ylmethyl)-5-(((1,2,3,4-tetrahydronaphthalen-2-yl)oxy)methyl)quinolin-8-ol], in data set [1], the IC50 was 1.9 µM.
As for `Oc1c(CN2CCCC2)cc(Cn2ncc(-c3ccc(Br)cc3)n2)c2cccnc12` [Compound 7a, 5-((4-(4-bromophenyl)-2H-1,2,3-triazol-2-yl)methyl)-7-(pyrrolidin-1-ylmethyl)quinolin-8-ol], the “apoptosis induction (cleaved-PARP, western blot)” value at survivin [2] (24 h) is given as “effectively induced apoptosis”. For the same compound, on survivin [2] (24 h, 1, 5 and 10 μM), the “levels of other IAPs (CIAP1, XIAP, Livin; western blot)” value was “minimally affected” and the “survivin protein levels (western blot)” value is “selectively suppressed survivin levels”. The IC50 in the data set on OVCAR3 and OVCAR8 cells came to 1.3 µM. Besides, the IC50 in data set [1] was 2 µM.
`Oc1c(CN2CCCC2)cc(Cn2ncc(-c3ccc(C(F)(F)F)cc3)n2)c2cccnc12` [Compound 7b, 7-(pyrrolidin-1-ylmethyl)-5-((4-(4-(trifluoromethyl)phenyl)-2H-1,2,3-triazol-2-yl)methyl)quinolin-8-ol]: the IC50 in data set [1] came out at 2.4 µM.
On to `Cc1ccc(-c2cnn(Cc3cc(CN4CCCC4)c(O)c4ncccc34)n2)cc1` [Compound 7d, 7-(pyrrolidin-1-ylmethyl)-5-((4-(p-tolyl)-2H-1,2,3-triazol-2-yl)methyl)quinolin-8-ol], for which the IC50 in data set [1] was found to be 1.6 µM.
In the case of `CCc1ccc(-c2cnn(Cc3cc(CN4CCCC4)c(O)c4ncccc34)n2)cc1` [Compound 7e, 5-((4-(4-ethylphenyl)-2H-1,2,3-triazol-2-yl)methyl)-7-(pyrrolidin-1-ylmethyl)quinolin-8-ol], the IC50 in data set [1] was determined as 2 µM.
On the same count and under the same terms, the value for `O=[N+]([O-])c1ccc(-c2cnn(Cc3cc(CN4CCCC4)c(O)c4ncccc34)n2)cc1` [Compound 7f, 5-((4-(4-nitrophenyl)-2H-1,2,3-triazol-2-yl)methyl)-7-(pyrrolidin-1-ylmethyl)quinolin-8-ol] was 2.4 µM.
In the case of `COc1ccc(-c2cnn(Cc3cc(CN4CCCC4)c(O)c4ncccc34)n2)cc1` [Compound 7g, 5-((4-(4-methoxyphenyl)-2H-1,2,3-triazol-2-yl)methyl)-7-(pyrrolidin-1-ylmethyl)quinolin-8-ol], in data set [1], the IC50 turned out to be 2 µM.
Still for that read-out and setting: the value for `N#Cc1ccc(-c2cnn(Cc3cc(CN4CCCC4)c(O)c4ncccc34)n2)cc1` [Compound 7h, 4-(2-((8-hydroxy-7-(pyrrolidin-1-ylmethyl)quinolin-5-yl)methyl)-2H-1,2,3-triazol-4-yl)benzonitrile] was 3.3 µM; that for `Oc1c(CN2CCCC2)cc(Cn2ncc(-c3ccccc3Br)n2)c2cccnc12` [Compound 7j, 5-((4-(2-bromophenyl)-2H-1,2,3-triazol-2-yl)methyl)-7-(pyrrolidin-1-ylmethyl)quinolin-8-ol] was 1.7 µM.
For `Oc1c(CN2CCCC2)cc(Cn2ncc(-c3cccc(Br)c3)n2)c2cccnc12` [Compound 7k, 5-((4-(3-bromophenyl)-2H-1,2,3-triazol-2-yl)methyl)-7-(pyrrolidin-1-ylmethyl)quinolin-8-ol], the IC50 stood at 1.1 µM with OVCAR3 and OVCAR8 cells; 1.7 µM in data set [1]. Also, on survivin [3], the “survivin protein accumulation (western blot)” value was “reduced the accumulation of survivin protein”.
Turning to `Oc1c(CN2CCCCC2)cc(Cn2ncc(-c3ccc(Br)cc3)n2)c2cccnc12` [Compound 12a, 5-((4-(4-bromophenyl)-2H-1,2,3-triazol-2-yl)methyl)-7-(piperidin-1-ylmethyl)quinolin-8-ol], the IC50 in the data set on OVCAR3 and OVCAR8 cells was 1.1 µM; in data set [1], 1.4 µM.
`Oc1c(CN2CCCCC2)cc(Cn2ncc(-c3ccc(C(F)(F)F)cc3)n2)c2cccnc12` [Compound 12b, 7-(piperidin-1-ylmethyl)-5-((4-(4-(trifluoromethyl)phenyl)-2H-1,2,3-triazol-2-yl)methyl)quinolin-8-ol]: the “reduction of tumor weight” value in the data set with A375 xenograft tumors is recorded as “approximately 32%”. Moreover, the “improvement of metabolic stability over MX-106” value in data set [4] turned out to be 1.7 fold.
Take `CCN(CC)Cc1cc(Cn2ncc(-c3ccc(C(F)(F)F)cc3)n2)c2cccnc2c1O` [Compound 12d, 7-((diethylamino)methyl)-5-((4-(4-(trifluoromethyl)phenyl)-2H-1,2,3-triazol-2-yl)methyl)quinolin-8-ol]: in data set [1], the IC50 was determined as 3.1 µM.
The same measure, in the same setting: the value for `Oc1c(CN2CCOCC2)cc(Cn2ncc(-c3ccc(Br)cc3)n2)c2cccnc12` [Compound 12e, 5-((4-(4-bromophenyl)-2H-1,2,3-triazol-2-yl)methyl)-7-(morpholinomethyl)quinolin-8-ol] was 1.7 µM.
The same measure, in the same setting: the figure for `Oc1c(CN2CCNCC2)cc(Cn2ncc(-c3ccc(Br)cc3)n2)c2cccnc12` [Compound 14, 5-((4-(4-bromophenyl)-2H-1,2,3-triazol-2-yl)methyl)-7-(piperazin-1-ylmethyl)quinolin-8-ol] is 2.6 µM.
Turning to `CC(C)c1ccc(COCc2cc(-c3ccccc3)c(O)c3ncccc23)cc1` [Compound 19a, 5-(((4-isopropylbenzyl)oxy)methyl)-7-phenylquinolin-8-ol], the “apoptosis induction (cleaved-PARP, western blot)” value at survivin [2] (24 h) is “effectively induced apoptosis”. Moreover, the “survivin protein levels at 10 μM (western blot)” value at survivin [2] (24 h, 10 μM) is reported as “did not show survivin downregulation”. Besides, the “survivin protein levels (western blot)” value at survivin [2] (24 h, 1, 5 and 10 μM) is on record as “selectively downregulated survivin”. Also, the IC50 in the data set with OVCAR3 and OVCAR8 cells was 2 µM.
For the compound `CC(C)c1ccc(COCc2cc(-c3cncc4ccccc34)c(O)c3ncccc23)cc1` [Compound 19b, 5-(((4-isopropylbenzyl)oxy)methyl)-7-(isoquinolin-4-yl)quinolin-8-ol], in data set [1], the IC50 came to 0.9 µM.
On to `CC(C)c1ccc(COCc2cc(-c3ccnc4ccccc34)c(O)c3ncccc23)cc1` [Compound 19c, 5’-(((4-isopropylbenzyl)oxy)methyl)-[4,7’-biquinolin]-8’-ol], for which, in data set [1], the IC50 was found to be 1.4 µM.
The same measure, in the same setting: the value for `Cc1ccc(-c2cc(COCc3ccc(C(C)C)cc3)c3cccnc3c2O)cc1` [Compound 19d, 5-(((4-isopropylbenzyl)oxy)methyl)-7-(p-tolyl)quinolin-8-ol] was 1.4 µM.
With `Cc1cccc(-c2cc(COCc3ccc(C(C)C)cc3)c3cccnc3c2O)c1` [Compound 19e, 5-(((4-isopropylbenzyl)oxy)methyl)-7-(m-tolyl)quinolin-8-ol], in data set [1], the IC50 is 1.6 µM.
For the compound `COc1ccc(-c2cc(COCc3ccc(C(C)C)cc3)c3cccnc3c2O)cc1` [Compound 19f, 5-(((4-isopropylbenzyl)oxy)methyl)-7-(4-methoxyphenyl)quinolin-8-ol], the IC50 in data set [1] stood at 1.4 µM.
For `CC(C)c1ccc(COCc2cc(-c3ccc(C(F)(F)F)cc3)c(O)c3ncccc23)cc1` [Compound 19g, 5-(((4-isopropylbenzyl)oxy)methyl)-7-(4-(trifluoromethyl)phenyl)quinolin-8-ol], in data set [1], the IC50 is 2.6 µM.
For `COCC[n+]1c2c(n(Cc3cnccn3)c1C)C(=O)c1ccccc1C2=O` [YM-155], the IC50 was more than 1 µM in the data set on MDA-MB-435/LCC6MDR1 and 0.0024 ± 0.0002 µM with MDA-MB-435.
